*1 amine or outer side, *2 acyl side, *3 side chain or, on linkers, in order; H or OH if unused. Where a SMILES comes first, the peptide text is derived from it. Bridges are numbered along the chain shown (N, C = ends). Roman numbers before positions name the chains, in order. [ ]: non-standard residue; d: D form. Actinocin(9to1) = Cc1c2oc3c(C)ccc(C(=O)[*:1])c3nc-2c(C(=O)[*:2])c(N)c1=O; NMeV = CN[C@H](C(=O)O)C(C)C; Sar = CNCC(=O)O
How the values were obtained:
[1] = test system: TMV-infected NN tobacco leaves; experiment: Induction of necrotic lesion formation by protease inhibitors in TMV-inoculated detached leaves, NN tobacco; type: in vivo, N. tabacum cv. Samsun NN; design: key to induction of necrotic lesion formation, Tobacco cv. NN: (−) = Necrotic lesion not induced; (+) = Necrotic lesion induced
Method: (§1) The following reagents were used as inhibitors: APMSF, Aprotinin and 3,4-D as serine protease inhibitors, E-64 as a cysteine protease inhibitor, EDTA as a metalloprotease inhibitor, and leupeptin as a serine/cysteine protease inhibitor. Each inhibitor was prepared as described below.
(§2) For EDTA (Wako Pure Chemicals. Ind. (Osaka, Japan), an aqueous solution adjusted to pH 8.0 by NaOH was used.
(§3) For E-64 (Boehringer Mannheim, Germany), a 50 mM solution in methanol/H2O (1:1, v/v) was used as a stock solution and subsequently diluted in water to the concentrations indicated below.
(§4) For 3,4-D (Boehringer Mannheim, Germany), a 50 mM solution in dimethyl sulfoxide was used as a stock solution and subsequently diluted in water to the concentrations indicated below.
(§5) Leupeptin, Aprotinin, and APMSP were each used as an aqueous solution.
(§6) In this example, EDTA was used at concentrations of 1 mM, […] and 50 mM, and other inhibitors were used at concentrations of 0.01 mM, 0.1 mM and 1 mM.
(§7) Prior to reagent treatment, tobacco leaves were detached, inoculated with TMV (8 μg/ml in a phosphate buffer (pH 7.0)) or mock (buffer alone), and incubated at 30° C. for 40 hr. After the incubation, petioles of the leaves were put into vials containing 0.5 ml of inhibitor solutions. The solution was absorbed through the petioles and sterile water was added to the vials within 1 hr. The treated leaves were then further incubated at 30° C.

[2] = test system: TMV-infected NN tobacco leaves; experiment: Induction of necrotic lesion formation by protease inhibitors in TMV-inoculated detached leaves, nn tobacco; type: in vivo, N. tabacum cv. Samsun nn; design: key: (−) = Necrotic lesion not induced; (+) = Necrotic lesion induced
Method: as §1, §2, §3, §4, §5, §6, §7

[3] = test system: TMV-infected NN tobacco; experiment: Induction of HR by EDTA and DCMU treatments, NN tobacco; type: in vivo, N. tabacum cv. Samsun NN; settings: 30° C., EDTA 5 mM, DCMU 100 mM, necrotic lesion, PR-1 expression, salicylic acid
Method: (§8) To perform an inhibitor treatment with NN tobacco and nn tobacco, EDTA, a metalloprotease inhibitor, and DCMU (3-(3,4-dichlorophenyl)-1,1-dimethylurea) (Sigma Chemical Co., St Louis, Mo., USA), an inhibitor of electron transport in a photochemical system II (PSII), were used as described in Example 8. An EDTA solution was prepared as described in Example 8. The DCMU was dissolved in methanol. The concentration of the inhibitors were 5 mM and 100 mM, respectively.
(§9) After the treatment, leavs were further incubated at 30° C., then examined regarding the followig: formation of a necrotic lesion; expression of PR-1; presence of a marker gene for the HR protein; and accumulation of salicylic acid. For expression of the PR gene, Northern analysis was performed as described in Example 4. Salicylic acid was quantitated as follows.
(§10) Free salicylic acid was extracted and quantitated as described by Malamy et al. (The Plant Cell, 4, 359 (1992)). HPLC analysis was performed on a μBondasphere, 5-μm C-18 (3.9 mm×15 cm) column maintained at 40° C. Isocratic separation was conducted with 23% (v/v) methanol in 20 mM sodium acetate (pH 5.0). Fluorescence detection was performed at using a Model RF-550A (Shimazu, Japan) at […]. All data were corrected for losses.

[4] = test system: TMV-infected NN tobacco; experiment: Induction of HR by EDTA and DCMU treatments, nn tobacco; type: in vivo, N. tabacum cv. Samsun nn; settings: 30° C., EDTA 5 mM, DCMU 100 mM, necrotic lesion, PR-1 expression, salicylic acid
Method: as §8, §9, §10

[5] = test system: DS9; experiment: DS9 transcription level and protein amount after AMD treatment (northern and western blotting analysis); type: in vivo, NN tobacco
Method: Prior to the treatments, tobacco leaves were detached, inoculated with TMV (10 μg/ml in a phosphate buffer (pH 7.0)) or mock inoculated (buffer alone), and incubated at 30° C. for 40 hr. For reagent treatment, after the incubation, petioles of the leaves were put into vials containing 0.5 ml of an inhibitor solutions containing AMD (Sigma Chemical Co., St. Louis, Mo., USA) as a 10% (v/v) methanol aqueous solution. The solution was absorbed through the petioles, and sterile water was added to the vials within 1 hr. For heat treatment, a TMV-infected NN tobacco was subjected to heat shock by treating at 50° C. for 2 minutes. Each of the treated leaves was then further incubated at 30° C. Northern analysis and Western blot analysis were performed as described in Examples 4 and 6. In addition, those treated with water were used as controls.

[6] = test system: TMV-infected NN tobacco; settings: AMD and heat (50° C., 2 minutes), 30° C.; cited from earlier work
[7] = test system: TMV-infected NN tobacco; settings: AMD and heat (50° C., 2 minutes); cited from earlier work
[8] = TMV-inoculated leaves at 30° C., EDTA 1 mM, 10 mM and 50 mM, other inhibitors 0.01 mM, 0.1 mM and 1 mM

N=C(N)c1ccc(CS(=O)(=O)F)cc1 [APMSF]
induction of necrotic lesion formation, Tobacco cv. NN [1, 8]: −
induction of necrotic lesion formation, Tobacco cv. nn [2, 8]: −

O=c1oc(Cl)c(Cl)c2ccccc12 [3,4-D]
induction of necrotic lesion formation, Tobacco cv. NN [1, 8]: −
induction of necrotic lesion formation, Tobacco cv. nn [2, 8]: −

CC(C)C[C@H](NC(=O)[C@H]1O[C@@H]1C(=O)O)C(=O)NCCCCN=C(N)N [E-64]
induction of necrotic lesion formation, Tobacco cv. NN [1, 8]: −
induction of necrotic lesion formation, Tobacco cv. nn [2, 8]: −

CC(=O)N[C@@H](CC(C)C)C(=O)N[C@@H](CC(C)C)C(=O)N[C@H](C=O)CCCNC(=N)N [leupeptin]
induction of necrotic lesion formation, Tobacco cv. NN [1, 8]: −
induction of necrotic lesion formation, Tobacco cv. nn [2, 8]: −

O=C(O)CN(CCN(CC(=O)O)CC(=O)O)CC(=O)O [EDTA]
induction of necrotic lesion formation, Tobacco cv. NN ([1]; in vivo): +
necrotic lesion in NN tobacco ([1]; in vivo): necrotic lesion was induced
induction of necrotic lesion formation, Tobacco cv. nn ([2]; in vivo): +
induction of the HR in NN tobacco [3]: induced the HR
induction of the HR in nn tobacco [4]: induced the HR

Cc1c2oc3c(C)ccc(C(=O)N[C@@H]4C(=O)N[C@H](C(C)C)C(=O)N5CCC[C@H]5C(=O)N(C)CC(=O)N(C)[C@@H](C(C)C)C(=O)O[C@@H]4C)c3nc-2c(C(=O)N[C@@H]2C(=O)N[C@H](C(C)C)C(=O)N3CCC[C@H]3C(=O)N(C)CC(=O)N(C)[C@@H](C(C)C)C(=O)O[C@@H]2C)c(N)c1=O [AMD, actinomycin D] (I: T[dV]P[Sar][NMeV] / II: T[dV]P[Sar][NMeV]; ester I:1-I:C, II:1-II:C; linker I:N-II:N via Actinocin(9to1))
DS9 transcription level ([5]; TMV-infected NN tobacco, 30° C., northern analysis): decrease significantly
DS9 protein amount ([5]; TMV-infected NN tobacco, 30° C., western blot): decrease significantly
amount of the DS9 protein, mock infected leaf ([5]; leaf subjected to mock infection, treated with AMD and heat shock (HS)): remarkably decreased
HR against TMV infection, NN tobacco [6]: the HR is induced
HR against TMV infection, nn tobacco [7]: the HR was also induced

Aprotinin
induction of necrotic lesion formation, Tobacco cv. NN [1, 8]: −
induction of necrotic lesion formation, Tobacco cv. nn [2, 8]: −

CN(C)C(=O)Nc1ccc(Cl)c(Cl)c1 [DCMU, 3-(3,4-dichlorophenyl)-1,1-dimethylurea]
induction of the HR in NN tobacco [3]: induced the HR
induction of the HR in nn tobacco [4]: induced the HR
